According to ChEMBL document CHEMBL1201862, “PubChem BioAssay data set” (2004):
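48-hour exposure; five concentrations; linearly interpolated endpoints. Here, GI50 denotes the concentration required for 50% inhibition of growth.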 Active and inactive are the calls of the source. Cut-off read from the data, not from the text of the source: active = GI50 up to about 1.1 µM and inactive = higher.

Key:
Experiment in all cases: NCI-60 cell line screen, 48 h
SN12C = tested on: SN12C
RPMI-8226 = tested on: RPMI-8226
LOX IMVI = tested on: LOX IMVI
MCF7 = tested on: MCF7
NCI-H522 = tested on: NCI-H522
SF-268 = tested on: SF-268
HCT-15 = tested on: HCT-15
UACC-62 = tested on: UACC-62
MDA-N = tested on: MDA-N
KM12 = tested on: KM12
U-251 = tested on: U-251
Hs-578T = tested on: Hs-578T
Malme-3M = tested on: Malme-3M
MOLT-4 = tested on: MOLT-4
BT-549 = tested on: BT-549
M19-MEL = tested on: M19-MEL
HOP-18 = tested on: HOP-18
SNB-78 = tested on: SNB-78
DMS-273 = tested on: DMS-273
XF498 = tested on: XF498

CC(C)(C)OC(=O)/C=C/C(=O)O/C=C/[N+](=O)[O-]
GI50 (SN12C): > 100 µM (inactive) | GI50 (RPMI-8226): > 100 µM (inactive) | GI50 (LOX IMVI): > 100 µM (inactive) | GI50 (MCF7): > 100 µM (inactive) | GI50 (NCI-H522): > 100 µM (inactive) | GI50 (SF-268): > 100 µM (inactive) | GI50 (HCT-15): > 100 µM | GI50 (UACC-62): > 100 µM (inactive) | GI50 (MDA-N): > 100 µM (inactive) | GI50 (KM12): > 100 µM (inactive) | GI50 (U-251): > 100 µM (inactive) | GI50 (Hs-578T): > 100 µM (inactive)

O=C1Nc2ccc(Br)cc2/C1=N/c1ccc(Cl)cc1
GI50 (Malme-3M): 24.8 µM (inactive) | GI50 (SN12C): 13 µM (inactive) | GI50 (RPMI-8226): 4.39 µM (inactive) | GI50 (LOX IMVI): 0.521 µM (active) | GI50 (MCF7): 10.2 µM (inactive) | GI50 (MOLT-4): 25.6 µM (inactive) | GI50 (NCI-H522): 7.66 µM (inactive) | GI50 (SF-268): 14.6 µM (inactive) | GI50 (HCT-15): 11.1 µM | GI50 (UACC-62): 0.237 µM (active) | GI50 (MDA-N): 6.98 µM (inactive) | GI50 (KM12): 4.55 µM (inactive) | GI50 (U-251): 23.8 µM (inactive) | GI50 (Hs-578T): 33.6 µM (inactive)

Oc1[nH]c(Nc2cccc(CC(F)(F)F)c2)nc2ncnc1-2
GI50 (Malme-3M): > 100 µM (inactive) | GI50 (SN12C): > 100 µM (inactive) | GI50 (RPMI-8226): > 100 µM (inactive) | GI50 (LOX IMVI): > 100 µM (inactive) | GI50 (MCF7): > 100 µM (inactive) | GI50 (NCI-H522): > 100 µM (inactive) | GI50 (BT-549): > 100 µM (inactive) | GI50 (SF-268): > 100 µM (inactive) | GI50 (HCT-15): > 100 µM | GI50 (UACC-62): > 100 µM (inactive) | GI50 (MDA-N): > 100 µM (inactive) | GI50 (KM12): > 100 µM (inactive) | GI50 (U-251): > 100 µM (inactive) | GI50 (Hs-578T): > 100 µM (inactive)

COC(C[C@H]1CCCC[C@]1(O)/C(=C\CO[Si](C(C)C)(C(C)C)C(C)C)Sc1ccccc1)OC
GI50 (Malme-3M): 22.5 µM (inactive) | GI50 (SN12C): 39.5 µM (inactive) | GI50 (RPMI-8226): 15.5 µM (inactive) | GI50 (LOX IMVI): 18 µM (inactive) | GI50 (MCF7): > 100 µM (inactive) | GI50 (MOLT-4): 17.3 µM (inactive) | GI50 (NCI-H522): 15.8 µM (inactive) | GI50 (SF-268): 28.3 µM (inactive) | GI50 (HCT-15): 21.8 µM | GI50 (UACC-62): > 100 µM (inactive) | GI50 (MDA-N): 45.2 µM (inactive) | GI50 (KM12): 41.3 µM (inactive) | GI50 (U-251): 22.1 µM (inactive) | GI50 (Hs-578T): 29.4 µM (inactive)

COc1cc2c(cc1OCCCC(=O)Nc1cc(C(=O)Nc3cc(C(=O)Nc4cc(C(=O)NCCCN(C)C)n(C)n4)n(C)n3)n(C)n1)N=CC1CCCN1C2=O (stereo not drawn)
GI50 (Malme-3M): 10.8 µM (inactive) | GI50 (SN12C): 21.1 µM (inactive) | GI50 (RPMI-8226): 5.74 µM (inactive) | GI50 (LOX IMVI): 3.07 µM (inactive) | GI50 (MCF7): 21.1 µM (inactive) | GI50 (MOLT-4): 3.01 µM (inactive) | GI50 (NCI-H522): 1.69 µM (inactive) | GI50 (BT-549): 12.4 µM (inactive) | GI50 (SF-268): 31.2 µM (inactive) | GI50 (HCT-15): 5.69 µM | GI50 (UACC-62): 20.3 µM (inactive) | GI50 (KM12): 21.1 µM (inactive) | GI50 (U-251): 9.77 µM (inactive) | GI50 (Hs-578T): 39.5 µM (inactive)

Cc1[nH]c(-c2ccccc2)c(O)c1C(=O)OC1CC(C)CCC1C(C)C (stereo not drawn)
GI50 (Malme-3M): 18.7 µM (inactive) | GI50 (SN12C): 15.7 µM (inactive) | GI50 (RPMI-8226): 15.3 µM (inactive) | GI50 (MCF7): 3.91 µM (inactive) | GI50 (MOLT-4): 11.1 µM (inactive) | GI50 (NCI-H522): 13.3 µM (inactive) | GI50 (BT-549): 18.4 µM (inactive) | GI50 (SF-268): 15.3 µM (inactive) | GI50 (HCT-15): 17.8 µM | GI50 (UACC-62): 16.5 µM (inactive) | GI50 (MDA-N): 16.3 µM (inactive) | GI50 (KM12): 13.4 µM (inactive) | GI50 (U-251): 15.5 µM (inactive) | GI50 (Hs-578T): 18.3 µM (inactive)

CCOC(=O)CC1(c2cccc3ccccc23)OC(=O)c2ccccc21 (stereo not drawn)
GI50 (M19-MEL): 48.5 µM (inactive) | GI50 (Malme-3M): 27.5 µM (inactive) | GI50 (SN12C): 43.1 µM (inactive) | GI50 (HOP-18): 40.4 µM (inactive) | GI50 (RPMI-8226): 23.7 µM (inactive) | GI50 (LOX IMVI): 60.4 µM (inactive) | GI50 (SNB-78): 66.4 µM (inactive) | GI50 (MOLT-4): 25.4 µM (inactive) | GI50 (NCI-H522): 24.1 µM (inactive) | GI50 (SF-268): 32.7 µM (inactive) | GI50 (HCT-15): 35.5 µM | GI50 (UACC-62): 57.7 µM (inactive) | GI50 (KM12): 40.5 µM (inactive) | GI50 (U-251): 68.4 µM (inactive) | GI50 (DMS-273): 41.7 µM (inactive)

CON(C)c1nc(N)c(C#N)c(C#N)c1C#N
GI50 (Malme-3M): > 10 µM (inactive) | GI50 (SN12C): > 10 µM (inactive) | GI50 (RPMI-8226): > 10 µM (inactive) | GI50 (LOX IMVI): > 10 µM (inactive) | GI50 (MCF7): > 10 µM (inactive) | GI50 (MOLT-4): > 10 µM (inactive) | GI50 (NCI-H522): > 10 µM (inactive) | GI50 (SF-268): > 10 µM (inactive) | GI50 (HCT-15): > 10 µM | GI50 (UACC-62): > 10 µM (inactive) | GI50 (MDA-N): > 10 µM (inactive) | GI50 (KM12): > 10 µM (inactive) | GI50 (U-251): > 10 µM (inactive) | GI50 (Hs-578T): > 10 µM (inactive)

O=S(O)CCCCCSSc1ccccc1
GI50 (M19-MEL): 50 µM (inactive) | GI50 (Malme-3M): 10 µM (inactive) | GI50 (SN12C): 27.8 µM (inactive) | GI50 (RPMI-8226): 18.5 µM (inactive) | GI50 (LOX IMVI): 20 µM (inactive) | GI50 (SNB-78): 41 µM (inactive) | GI50 (MOLT-4): 8.13 µM (inactive) | GI50 (NCI-H522): 15.3 µM (inactive) | GI50 (XF498): 24.2 µM (inactive) | GI50 (SF-268): 15.8 µM (inactive) | GI50 (UACC-62): 28.3 µM (inactive) | GI50 (KM12): 53.3 µM (inactive) | GI50 (U-251): 21.3 µM (inactive)

C[C@@H](NC(=O)[C@@H]1C[C@]1(C)COC(=O)c1cc([N+](=O)[O-])cc([N+](=O)[O-])c1)c1cccc2ccccc12
GI50 (Malme-3M): 6.87 µM (inactive) | GI50 (SN12C): > 100 µM (inactive) | GI50 (RPMI-8226): > 100 µM (inactive) | GI50 (LOX IMVI): 60.1 µM (inactive) | GI50 (MCF7): > 100 µM (inactive) | GI50 (MOLT-4): > 100 µM (inactive) | GI50 (BT-549): > 100 µM (inactive) | GI50 (SF-268): > 100 µM (inactive) | GI50 (HCT-15): > 100 µM | GI50 (UACC-62): 50 µM (inactive) | GI50 (MDA-N): > 100 µM (inactive) | GI50 (KM12): > 100 µM (inactive) | GI50 (U-251): 99.3 µM (inactive) | GI50 (Hs-578T): 20 µM (inactive)
